According to US7897620B2, “Methods of using anti-inflammatory compounds” (Cambridge Enterprise Limited, priority 2007, dated 2011):

Key:
[1] = Potency in vivo, model not stated; conditions: prior art peptides compared
[2] = system: chemokine-induced migration; experiment: BSCI activity in vitro, chemokine-induced migration (general statements); format: cell-based; conditions: prior art peptides compared
[3] = in vivo, cited from earlier work
[4] = Pharmacokinetics following a single dose in rat (LC-MS/MS of blood, one-compartment model); format: in vivo; conditions: single oral dose
Description: Compounds were administered as a single dose (either 1 mg/kg bodyweight in 5% DMSO via the intravenous route or 3 mg/kg in 1% carboxymethylcellulose via the oral route) to three adult rats (using different rats for each compound and each route of administration).
Blood was then sampled at various time points (including just prior to dose administration) out to 24 hrs post dose, and the level of the various compounds was assessed using a validated LC-MS/MS assay. Briefly, 3-5 μl of the deproteinised sample was applied to a Waters Atlantis (C18 20×2.1 mm, 3 μm bead size) reverse phase chromatography column equilibrated in 0.1% formic acid in 95:5 water:actetonitrile. Over 3.5 minutes bound material was gradient eluted reaching 0.1% formic acid in 5:95 water:acetonitrile, followed by a step gradient back to 0.1% formic acid in 95:5 water:acetonitrile. The column eluent was then directed to an Applied Biosystems API 4000/3200 QTrap MS/MS mass spectrometer, with a Turbolonspray™ ion source operating in positive ion mode. The interface temperature was set at 650° C., with a 40 ms dwell time for each MRM transition, monitoring the following ions:
The internal standard in each determination was the related compound (S)-3-(2′,2′-dimethylpropanoylamino)-caprolactam, which was spiked into the sample prior to deproteinization. The lower limit of quantitation (LLOQ) for this assay was 2.4 ng/ml for each compound except (I′), where it was 38.1 ng/ml.
Following LC-MS/MS analysis of each collected sample, the pharmacokinetic disposition of the compound was modelled using Kinetica software, a well known software package for such applications.

[5] = Water solubility (observation); format: physicochemical

Row | exposure following a single oral dose, fold higher than the other lactam BSCIs tested [4] | water solubility [5] | Compound | fold less potent in vivo [1] | fold less potent in vitro [2] [fold] | half-life period of clearance from blood plasma ([3]; iv) | oral bioavailability ([3]; po)
1 |  |  | c(DCys-DGln-DIle-DTrp-DLys-DGln-DLys-DPro-DAsp-DLeu-DCys)-NH2 [NR58-3.14.3] | > 10,000 fold | > 25 | less than 30 minutes | not orally bioavailable
2 | more than 10 fold | significant water solubility | CC(C)(C)C(=O)NC1CCCNC1=O (stereo not drawn) [Compound (I), 3-(2′,2′-dimethylpropanoylamino)-tetrahydropyridin-2-one] |  |  |  | 
